In general, melting point refers to the temperature, or range, at which the solid turns liquid.

This note sets out measurements from patent US6440999B1, “Intimal thickening inhibitory agent” (Chugai Seiyaku Kabushiki Kaisha, priority 1995, dated 2002).

Series [1] concerns A7r5 cells derived from the aorta of a rat. Kind of series: Inhibition of serum-stimulated proliferation of vascular smooth muscle cells, acid phosphatase activity. It counts as cell-based. The note with it: 48 hours after 2% FBS stimulation, n = 3, mean ± SD; for Acid Phosphatase Activity Absorbance (OD405): control 0.867 ± 0.089; for activity at 10 µM / activity at 30 µM / activity at 100 µM: Rattus norvegicus, A7R5, control 100 ± 10. The method, then: In order to assess the inhibitory effect of the compounds of the present invention on serum-stimulated proliferation of vascular smooth muscle cells in vitro, the compounds of Examples 1, 4, 20, 22, 27, 31, 36, 50, 52, and 58 were tested using A7r5 cells derived from the aorta of a rat (ATCC-CRL-1444).
Using DMEM medium containing 10% FBS, the cells were placed on 96-well microtiter plates with 5×10^3 cells/0.2 ml/ well and then incubated. The medium was exchanged for 2% FBS-containing DMEM medium on the third day and then for 0.2% FBS-containing DMEM medium on the fourth day from the start of the incubation. After 24-hour incubation in the 0.2% FBS-containing DMEM medium, the test compound was added. Each of the test compounds were added to the wells in the form of a solution or suspension in ethanol in an amount of 1 μl/well to final compound concentrations indicated in Table 3 below and the resultant ethanol concentration of 0.5% in each well. After additional 24-hour incubation, the medium was removed, and 0.2 ml of DMEM medium and the test compound were added thereto again, and the cells were stimulated by serum (2% FBS). Forty-eight hours after the stimulation, the acid phosphatase activity in the wells was measured by means of a kit (Abacus Cell Proliferation Kit, available from Clontech Lab. Inc. CA, U.S.A.) and evaluated as an indication of cell proliferation.

Series [2] relates to rabbit balloon injury models. Kind of series: In vivo effect in intimal thickening model (2), rabbit balloon injury. The conditions noted are these: cholesterol-fed rabbits, 15-week-old, 200 mg/kg oral once a day, four weeks after balloon treatment, mean ± SD. The method, then: In order to assess the inhibitory effect of the compound of the present invention on intimal thickening in vivo, the compound of Example 36 was tested using rabbit balloon injury models that were different from those used in Test Example 4 in week-age. Further, the effect was compared with that of Probucol which was reported to have an inhibitory effect on intimal thickening in balloon injury models (see Proc. Natl. Acad. Sci., U.S.A., 89, pp 11312-11316 (1992)).
Cholesterol-fed rabbits in groups of seven (JW: CSK male, 15-week-old) were used to prepare rabbit balloon injury models. Briefly, rabbits were fed with a high cholesterol diet (cholesterol content: 1%) for 2 weeks before balloon treatment. The animals were balloon-treated with a balloon catheter (4 French, available from Baxter) under anesthesia to peel the aortic intima 5 times. The animals were orally administered with the compound which was suspended in a 1% CMC solution (200 mg/kg). On the other hand, control animals were orally administered with a 1% CMC solution without the compound. The administrations were performed once a day from 1 week before the balloon treatment until the day before the dissection for evaluation. In order to evaluate the degree of balloon injury, a balloon-nontreated group (3 animals) was prepared.
After four weeks from the balloon treatment, specimens were taken from the aorta, stained with Elastica van Geison, and analyzed under an optical microscope. The image was processed to measure the thickness and area of the thickened intima. Averages of the thickness and area were obtained for each individual animal. The animals which died after the operation and those having a serum cholesterol level of 3500 mg/dl or higher were excluded from the measurement. The number of animals used for the evaluation was 4 or 5 per group.

In series [3] the test system is A7r5 cells derived from the aorta of a rat. The series can be described thus: Inhibition of serum- or PDGF-stimulated proliferation of vascular smooth muscle cells, [3H]-thymidine uptake. The conditions noted are these: uptake in 5 hours, n = 3, mean ± SD; for Count by Liquid Scintillation Counter, FBS Stimulation ([3H]-thymidine uptake): 2% FBS, control 42789 ± 1063; for Count by Liquid Scintillation Counter, PDGF Stimulation ([3H]-thymidine uptake): PDGF-BB 4 ng/ml, control 24517 ± 2370. The series is classed as cell-based. The method, then: In order to assess the inhibitory effect of a compound of the present invention on serum- or PDGF-stimulated proliferation of vascular smooth muscle cells in vitro, the compound obtained in Example 36 was tested using A7r5 cells derived from the aorta of a rat (ATCC-CRL-1444). Further, the effect was compared with that of α-tocopherol which was reported to have an inhibitory effect on proliferation of vascular smooth muscle cells (see J. Biol. Chem., 266, pp. 6188-6194 (1991)).
Using DMEM medium containing 10% FBS, the cells were placed on 96-well microtiter plates with 5×10^3 cells/0.2 ml/well and then incubated. The medium was exchanged for 2% FBS-containing DMEM medium on the third day and then for 0.2% FBS-containing DMEM medium on the fourth day from the start of the incubation. After 48-hour incubation in the 0.2% FBS-containing DMEM medium, the medium was removed, 0.2 ml of DMEM medium and the test compound were added, and the cells were stimulated with serum (2% FBS) or PDGF (PDGF-BB: human origin, available from Becton Dickinson Labware) (4 ng/ml) to proliferate. The test compound was added to the wells in the form of a solution or suspension in ethanol in amount of 1 μl well to final compound concentrations indicated in Table 2 below and the resultant ethanol concentration of 0.5% in each well. Eight hours after the stimulation, hydroxyurea was added to a final concentration of 1.5 mM to synchronize the cell cycle strictly. After additional 14-hour incubation, the medium containing hydroxyurea was removed and the cells were washed, and DMEM medium, the test compound and the proliferation stimulator were added thereto again. Further, [^3H]-thymidine (1 μCi/well; […]; available from NEN Research) was added. The [^3H]-thymidine uptake in 5 hours was measured as an indication of cell proliferation.

Structures are written as SMILES.

`CC(C)(C)c1cc2c(c(C(C)(C)C)c1O)CC1(CCCCCC1)O2` [Example 20, 4,6-Di-t-butyl-5-hydroxy-2,3-dihydrobenzofuran-2-spiro-1′-cycloheptane]: in series [1] (10 μM), the “Acid Phosphatase Activity Absorbance (OD405)” value came out at 0.472 ± 0.031 and the activity at 10 µM amounted to 54 ± 4%. Besides, in series [1] (30 μM), the “Acid Phosphatase Activity Absorbance (OD405)” value is 0.105 ± 0.027 and the activity at 30 µM turned out to be 12 ± 3%.

Regarding `CC1(C)Cc2c(cc(C(C)(C)C)c(O)c2C(C)(C)C)S1` [Example 52, 4,6-Di-t-butyl-5-hydroxy-2,2-dimethyl-2,3-dihydrobenzothiophene], in series [1] (10 μM), the “Acid Phosphatase Activity Absorbance (OD405)” value was determined as 0.690 ± 0.071 and the activity at 10 µM was 80 ± 8%. For the same compound, in series [1] (30 μM), the “Acid Phosphatase Activity Absorbance (OD405)” value was 0.043 ± 0.008 and the activity at 30 µM came to 5 ± 1%.

As to `CC(C)(Sc1cc(C(C)(C)C)c(O)c(C(C)(C)C)c1)Sc1cc(C(C)(C)C)c(O)c(C(C)(C)C)c1` [Probucol, reference compound], the Area of Intima in series [2] (control 1.32 ± 0.22) was determined as 0.97 ± 0.28 mm². Besides, the “Thickness of Intima” value in series [2] (control 119 ± 19) turned out to be 92 ± 17 μm.

For `CC(C)(C)c1cc2c(c(C(C)(C)C)c1O)CC1(CCOCC1)O2` [Example 22, 4,6-Di-t-butyl-5-hydroxy-2,3-dihydrobenzofuran-2-spiro-4′-tetrahydropyran], in series [1] (10 μM), the “Acid Phosphatase Activity Absorbance (OD405)” value turned out to be 0.875 ± 0.013 and the activity at 10 µM was 101 ± 1%. Also, in series [1] (100 μM), the “Acid Phosphatase Activity Absorbance (OD405)” value was 0.777 ± 0.062 and the activity at 100 µM was determined as 90 ± 7%.

For the compound `CC(C)(C)c1cc2c(c(C(C)(C)C)c1O)CCO2` [Example 1, 4,6-Di-t-butyl-5-hydroxy-2,3-dihydrobenzofuran], in series [1] (10 μM), the “Acid Phosphatase Activity Absorbance (OD405)” value is 0.727 ± 0.032 and the activity at 10 µM was 84 ± 4%. Further, in series [1] (100 μM), the “Acid Phosphatase Activity Absorbance (OD405)” value worked out at 0.288 ± 0.073 and the activity at 100 µM stood at 33 ± 8%.

`CCCCCC1(CCCCC)Cc2c(cc(C(C)(C)C)c(O)c2C(C)(C)C)S1` [Example 50, 4,6-Di-t-butyl-5-hydroxy-2,2-di-n-pentyl-2,3-dihydrobenzothiophene]: in series [1] (10 μM), the “Acid Phosphatase Activity Absorbance (OD405)” value was found to be 0.699 ± 0.131 and the activity at 10 µM was 81 ± 15%. Moreover, in series [1] (30 μM), the “Acid Phosphatase Activity Absorbance (OD405)” value worked out at 0.146 ± 0.026 and the activity at 30 µM came out at 17 ± 3%.

In the case of `CCCOc1cc(C(C)(C)C)c(O)c(C(C)(C)C)c1C` [Example 31, 2,6-Di-t-butyl-3-methyl-4-propyloxyphenol], in series [1] (10 μM), the “Acid Phosphatase Activity Absorbance (OD405)” value is given as 0.756 ± 0.025 and the activity at 10 µM was found to be 87 ± 3%. Moreover, in series [1] (100 μM), the “Acid Phosphatase Activity Absorbance (OD405)” value came out at 0.600 ± 0.102 and the activity at 100 µM was found to be 69 ± 12%.

Regarding `Cc1c(C)c2c(c(C)c1O)CC[C@@](C)(CCC[C@H](C)CCC[C@H](C)CCCC(C)C)O2` [α-Tocopherol, α-tocopherol, reference compound], in series [3] (30 μM), the “Count by Liquid Scintillation Counter, FBS Stimulation ([3H]-thymidine uptake)” value amounted to 28058 ± 3912 CPM and the “Count by Liquid Scintillation Counter, PDGF Stimulation ([3H]-thymidine uptake)” value stood at 12493 ± 2978 CPM. In series [3] (100 μM), the “Count by Liquid Scintillation Counter, FBS Stimulation ([3H]-thymidine uptake)” value came out at 25706 ± 4160 CPM and the “Count by Liquid Scintillation Counter, PDGF Stimulation ([3H]-thymidine uptake)” value was 12159 ± 2362 CPM.

Turning to `CC1(CO)Cc2c(cc(C(C)(C)C)c(O)c2C(C)(C)C)O1` (stereo not shown) [Example 48, 4,6-Di-t-butyl-5-hydroxy-2-hydroxymethyl-2-methyl-2,3-dihydrobenzofuran], the melting point was in the range of 126 to 128 °C.

As for `CC(C)(C)c1cc2occc2c(C(C)(C)C)c1O` [Example 27, 4,6-Di-t-butyl-5-hydroxybenzofuran], in series [1] (10 μM), the “Acid Phosphatase Activity Absorbance (OD405)” value worked out at 0.553 ± 0.033 and the activity at 10 µM was 64 ± 4%. For the same compound, in series [1] (30 μM), the “Acid Phosphatase Activity Absorbance (OD405)” value was found to be 0.225 ± 0.064 and the activity at 30 µM came to 26 ± 7%.

With `CC(C)(C)c1cc2c(c(C(C)(C)C)c1O)CC1(CCCCC1)S2` [Example 58, 4,6-Di-t-butyl-5-hydroxy-2,3-dihydrobenzothiophene-2-spiro-1′-cyclohexane], in series [1] (10 μM), the “Acid Phosphatase Activity Absorbance (OD405)” value worked out at 0.417 ± 0.125 and the activity at 10 µM was determined as 48 ± 14%. Also, in series [1] (30 μM), the “Acid Phosphatase Activity Absorbance (OD405)” value is recorded as 0.045 ± 0.006 and the activity at 30 µM came out at 5 ± 1%.

For `CC1(C)Cc2c(cc(C(C)(C)C)c(O)c2C(C)(C)C)O1` [Example 4, 4,6-Di-t-butyl-5-hydroxy-2,2-dimethyl-2,3-dihydrobenzofuran], in series [1] (10 μM), the “Acid Phosphatase Activity Absorbance (OD405)” value came out at 0.606 ± 0.020 and the activity at 10 µM is 70 ± 2%. In addition, in series [1] (30 μM), the “Acid Phosphatase Activity Absorbance (OD405)” value was found to be 0.062 ± 0.026 and the activity at 30 µM was found to be 7 ± 3%.
